Values of other authors, collected in patent publication US12176074B2, “Compound function prediction method based on neural network and connectivity map algorithm” (BEIJING GIGACEUTICALS TECH. CO. LTD, priority 2021, dated 2024).

Test system: novel coronavirus (SARS-CoV-2)
Conditions: specific data in Chinese patent application 202010309486.2; read-out: EC50, effect for fighting against the novel coronavirus

## O=C1C[C@@H](c2ccc(O[C@@H]3O[C@H](CO)[C@@H](O)[C@H](O)[C@H]3O)cc2)Oc2cc(O)ccc21 [liquiritin]
  EC50: 2390 nM
